Experimental data published in patent publication US5554789A, “Arylpropionic derivative, a process for the preparation and the use thereof as an analgesic agent” (Laboratorios Menarini S.A., priority 1992, dated 1996).
Structures can show the parent of a compound that is named as a salt. Where two headings read alike, the source gives them in different places.

Columns and labels:
[1] = Plasmatic levels of the (+)-(S) enantiomer in humans; details: vs (+)-(S)-ketoprofen free acid or double dose of racemic ketoprofen free acid
[2] = pH in aqueous solution; format: physicochemical
[3] = Toxicity (general statement); details: compared with the other derivatives
[4] = Hygroscopicity; format: physicochemical
[5] = Gastrolesive effect in animals
[6] = Analgesic action (general statements); format: in vivo
[7] = system: Swiss male mice; assay: Phenylbenzoquinone writhing test (analgesic activity); format: in vivo
[8] = background; cited from earlier work
[9] = cited from earlier work
[10] = Dissolution rate in water; format: physicochemical; details: compared with compound (I)

SMILES: C[C@H](C(=O)O)c1cccc(C(=O)c2ccccc2)c1 [I, (+)-(S)-2-(3-benzoylphenyl)propionic acid tromethamine salt]
- plasmatic levels of the active (+)-(S) enantiomer [1]: higher plasmatic levels of the active (+)-(S) enantiomer in a far shorter time
- pH in aqueous solution [2]: physiologically compatible pH in aqueous solution
- toxicity [3]: lower toxicity
- hygroscopicity [4]: very low hygroscopicity
- gastrolesive effect ([5]; animals, vs (+)-(S)-, (-)-(R)- and racemic ketoprofen): much less gastrolesive
- gastrolesive effect ([5]; vs corresponding free acid or racemic ketoprofen): markedly less gastrolesive than the corresponding free acid or the racemic ketoprofen
- analgesic action (onset, response, duration) ([6]; vs racemic ketoprofen): faster onset of analgesic action, an enhanced analgesic response and a longer duration than racemic ketoprofen
- analgesic action and response ([6]; vs racemic ketoprofen tromethamine salt): faster action and enhanced analgesic response than the racemic ketoprofen tromethamine salt
- analgesic effectiveness compared with racemic ketoprofen ([7]; phenylbenzoquinone writhing test, intravenous and oral): same analgesic effectiveness as a racemic ketoprofen double dose

SMILES: CC(C(=O)O)c1cccc(C(=O)c2ccccc2)c1 (stereo not drawn) [sodium salt]
- hygroscopicity [8]: high hygroscopicity

SMILES: C[C@H](C(=O)O)c1cccc(C(=O)c2ccccc2)c1 [(+)-(S)-ketoprofen, (+)-(S)-2-(3-benzoylphenyl)propionic acid]
- analgesic action ([9]; vs the racemic, administered doses being equal): faster acting and more potent analgesic than the racemic

SMILES: CC(C(=O)O)c1cccc(C(=O)c2ccccc2)c1 (racemic) [(R,S)-ketoprofen tromethamine salt]
- % Inhibition (analgesic effect, phenylbenzoquinone test) ([7]; intravenously, 0.30 mg/kg (amount of ketoprofen injected)): 62.9 ± 11.7%

SMILES: C[C@H](C(=O)O)c1cccc(C(=O)c2ccccc2)c1 [L-lysine salt]
- dissolution rate [10]: significantly lower

SMILES: CC(C(=O)O)c1cccc(C(=O)c2ccccc2)c1 (racemic) [(R,S)-ketoprofen, 2-(3-Benzoylphenyl)propionic acid]
- analgesic and antipyretic action ([9]; background): potent analgesic and antipyretic action
- % Inhibition (analgesic effect, phenylbenzoquinone test) ([7]; orally, 30 minutes prior to phenylbenzoquinone, 0.30 mg/kg): 50.0 ± 7.8%
